Laboratory results taken from patent US20260374818A1, “CATIONIC PEPTIDES WITH BROAD SPECTRUM ACTIVITY” (priority 2023, published 2026).
Converted amounts (≈) assume the structure as drawn. Where a SMILES comes first, the peptide text is derived from it. [ ]: non-standard residue; d: D form.

Tests used:
[1] = tested on: P. aeruginosa PAO1 biofilms; assay: Biofilm inhibition by SPOT-synthesized AB103-D variants (crystal violet), P. aeruginosa; assay type: cell-based, Pseudomonas aeruginosa; conditions: P. aeruginosa PAO1, SPOT peptides
MRSA USA300 biofilms = assay: Biofilm inhibition by >95% pure peptides (crystal violet), MRSA; assay type: cell-based, methicillin resistant Staphylococcus aureus; conditions: MRSA USA300 biofilms, >95% pure peptides, 10% TSB + 0.1% glucose
[2] = Subdermal murine toxicity model; conditions: 16 hours after administration, 4 mg/kg
Experimental: FIGS. 14A-14B show murine subdermal toxicity assessment of AB103-D derived peptides. Clinical scores were recorded for each peptide treated mouse one hour after peptide administration (FIG. 14A). […] The presence of a cyst or lesion was recorded 16 hours after peptide administration and the size of the cyst was measured using calipers (FIG. 14B). Data shown are the mean of two independent replicates at a peptide dose of 4 mg/kg.
Subdermal murine toxicity model: A subdermal toxicity mouse model was used to evaluate whether peptides induced localized toxicity of treated cutaneous tissue. Mice were anesthetized with 2.5-3% isoflurane and their fur was removed by shaving followed by application of a chemical depilatory. […] Mice were visually assessed and received clinical scores for a battery of signs or symptoms (activity/behaviour change, appearance/grooming, hydration, pain, cyst formation), for which a score of zero was given to animals that appeared normal. Animals were weighed and clinical scores were totalled. Following an overnight (16 h) incubation, mice were scored and weighed then euthanized with CO2 followed by cervical dislocation. Mice were imaged and cysts (swollen, inflamed tissue) were measured using a caliper. Animal experiments were performed in accordance with the Canadian Council on Animal Care (CCAC) guidelines and were approved by the University of British Columbia Animal Care Committee. Female CD-1 mice were purchased from Charles River Laboratories, Inc. (Wilmington, MA). All mice were 8 weeks of age and weighed 25±5 g at the time of the experiment. Animals were group housed in cohorts of three to four littermates. Standard animal husbandry practices were employed.

[3] = tested on: P. aeruginosa PAO1 biofilms; conditions: P. aeruginosa PAO1 biofilms; >95% pure peptides; crystal violet; BM2 minimal media
P. aeruginosa PAO1 = assay: MIC (broth microdilution) of peptides, P. aeruginosa; assay type: cell-based, Pseudomonas aeruginosa; conditions: mode of three biological replicates
Experimental: (§1) Minimal inhibitory concentration (MIC) against planktonic bacteria: The MIC of the synthetic peptides was determined in Mueller-Hinton broth (MHB) using the broth microdilution method described previously [Wiegand, I., Hilpert, K., & Hancock, R. E. (2008). Agar and broth dilution methods to determine the minimal inhibitory concentration (MIC) of antimicrobial substances. Nature Protocols, 3(2), 163-175]. Briefly, 10 μl of a 10× concentrated peptide solution was placed in the bottom of a well in a 96-well polypropylene round bottom plate (Corning Inc.). A bacterial suspension of ~5×10^5 CFU/ml was prepared from an overnight culture and 90 μl of this was added to each well. […] Bacteria tested included P. aeruginosa PAO1, MRSA USA300 LAC, Staphylococcus haemolyticus, Staphylococcus epidermidis, Klebsiella pneumoniae and Streptococcus salivarius.
(§2) Finally, the AB103-D derivatives that were the least aggregation prone and which produced the lowest toxic effects in vivo were evaluated for their direct antibacterial activity towards several pathogens of clinical relevance using a standard minimum inhibitory concentration (MIC) assay [Wiegand, I., Hilpert, K., & Hancock, R. E. (2008). Agar and broth dilution methods to determine the minimal inhibitory concentration (MIC) of antimicrobial substances. Nature Protocols, 3(2), 163-175]. Specifically, peptides AB110-D, AB111-D, AB114-D and AB115-D were tested against P. aeruginosa PAO1, MRSA USA 300, Staphylococcus haemolyticus, Staphylococcus epidermidis, Klebsiella pneumoniae and Streptococcus salivarius and compared against the antibacterial activity of DJK-5 and AB103-D (Table 7). Overall, the antibacterial potency of all of the AB103-D derivatives was stronger than that seen for DJK-5, particularly in the case of the Gram-negative pathogens P. aeruginosa and K. pneumoniae. […]

MRSA USA 300 = assay: MIC (broth microdilution) of peptides, MRSA; assay type: cell-based, methicillin resistant Staphylococcus aureus; conditions: MRSA USA300; mode of three biological replicates
Experimental: as §1, §2

[4] = tested on: Staphylococcus haemolyticus; assay: MIC (broth microdilution) of peptides, S. haemolyticus; assay type: cell-based; conditions: mode of three biological replicates
Experimental: as §1, §2

[5] = tested on: P. aeruginosa PAO1 biofilms; assay: Checkerboard biofilm synergy of AB103-D with antimicrobials, PAO1; assay type: cell-based, Pseudomonas aeruginosa; conditions: for FIC against biofilms: antibiotic used with AB103-D, ≤0.5 synergy; for Fold Decrease in concentration of AB103-D: in combination of antibiotic with AB103-D; for Fold Decrease in concentration of AB103-D / Fold Decrease in concentration of Antibiotic: PAO1; for Fold Decrease in concentration of Antibiotic: in combination with AB103-D
[6] = tested on: MRSA USA 300 LAC biofilms; assay: Checkerboard biofilm synergy of AB103-D with antimicrobials, MRSA; assay type: cell-based, methicillin resistant Staphylococcus aureus; conditions: for Biofilm MBIC in 10% TSB, 0.1% glucose / Fold decrease AB103-D / Fold decrease Antibiotic: MRSA; for FIC: antibiotic used with AB103-D, MRSA USA 300 LAC, ≤0.5 synergy; for Fold decrease AB103-D: in combination of antibiotic with AB103-D; for Fold decrease Antibiotic: in combination with AB103-D
[7] = tested on: P. aeruginosa PAO1 planktonic cells; assay: MIC of antibiotics against planktonic cells, PAO1; assay type: cell-based, Pseudomonas aeruginosa; conditions: for MIC against planktonic cells in BM2 medium: PAO1, BM2; for MIC against planktonic cells in MHB medium: PAO1, MHB
[8] = tested on: MRSA USA 300 LAC planktonic cells; assay: MIC of antibiotics against planktonic cells, MRSA; assay type: cell-based, methicillin resistant Staphylococcus aureus; conditions: MRSA planktonic

| Compound | Activity against PAO1 biofilms compared to AB103-D [1] | minimum inhibitory concentration of peptide that inhibited at least 90% of biofilm growth (MBIC90) (MRSA USA300 biofilms) [µM] | Average cyst size compared to DJK-5 [2] | minimum inhibitory concentration of peptide that inhibited at least 90% of biofilm growth (MBIC90) [3] [µM] | FIC against biofilms ([5]; PAO1, BM2) | Fold Decrease in concentration of AB103-D [5] | Fold Decrease in concentration of Antibiotic [5] | FIC [6] | Fold decrease AB103-D [6] | Fold decrease Antibiotic [6] | other results |
| --- | --- | --- | --- | --- | --- | --- | --- | --- | --- | --- | --- |
| CC[C@@H](C)[C@@H](NC(=O)[C@@H](C)NC(=O)[C@@H](CCCNC(=N)N)NC(=O)[C@@H](Cc1c[nH]c2ccccc12)NC(=O)[C@@H](CCC(N)=O)NC(=O)[C@H](NC(=O)[C@@H](CCCNC(=N)N)NC(=O)[C@H](NC(=O)[C@H](NC(=O)[C@H](NC(=O)[C@H](NC(=O)[C@H](N)CCCNC(=N)N)C(C)C)[C@H](C)CC)C(C)C)[C@H](C)CC)C(C)C)C(N)=O [AB116-D, rvivirvqwrai] (H-[dR][dV][dI][dV][dI][dR][dV][dQ][dW][dR][dA][dI]-NH2) | activity superior to that of AB103-D | 1 | smaller than those induced by DJK-5 | >16 | – | – | – | – | – | – | – |
| CC[C@@H](C)[C@@H](NC(=O)[C@@H](C)NC(=O)[C@@H](CCCNC(=N)N)NC(=O)[C@@H](Cc1c[nH]c2ccccc12)NC(=O)[C@@H](CCC(N)=O)NC(=O)[C@H](NC(=O)[C@@H](CCCNC(=N)N)NC(=O)[C@H](NC(=O)[C@@H](Cc1c[nH]c2ccccc12)NC(=O)[C@@H](CCCNC(=N)N)NC(=O)[C@H](NC(=O)[C@H](N)CCCNC(=N)N)C(C)C)[C@H](C)CC)C(C)C)C(N)=O [AB110-D, rvrwirvqwrai] (H-[dR][dV][dR][dW][dI][dR][dV][dQ][dW][dR][dA][dI]-NH2) | activity superior to that of AB103-D | 1 | smaller than those induced by DJK-5 | 4 | – | – | – | – | – | – | MIC (P. aeruginosa PAO1): 2 mg/L (≈ 1.22 µM); MIC (MRSA USA 300): 0.8 mg/L (≈ 0.488 µM); MIC [4]: 0.8 mg/L (≈ 0.488 µM) |
| OO [H2O2] | – | – | – | – | 0.5 | 4-fold | 4-fold | 0.63 | 8-fold | 2-fold | Antibiotic MBIC against biofilms ([5]; PAO1, BM2, in %): 0.08%; Biofilm MBIC in 10% TSB, 0.1% glucose ([6]; in %): 0.0025%; MIC against planktonic cells in BM2 medium ([7]; in %): 0.08%; MIC against planktonic cells in MHB medium ([7]; in %): 0.01%; MIC in MHB medium ([8]; in %): 0.0018%; MIC in 10% TSB, 0.1% glucose ([8]; in %): 0.0025% |
| Colistin | – | – | – | – | 0.63 | 8-fold | 2-fold | 0.63 | 2-fold | 8-fold | Antibiotic MBIC against biofilms ([5]; antibiotic alone, PAO1, BM2, at least 70% reduction): 4 µg/mL; Biofilm MBIC in 10% TSB, 0.1% glucose ([6]; antibiotic alone, at least 70% reduction): 2; MIC against planktonic cells in BM2 medium [7]: 4 µg/mL; MIC against planktonic cells in MHB medium [7]: 1 µg/mL; MIC in 10% TSB, 0.1% glucose ([8]; 10% TSB, 0.1% glucose): 4; MIC in MHB medium [8]: 8 mg/L |
